The results in this text go back to patent US6399579B1, “Compositions comprising icariside I and anhydroicaritin and methods for making the same” (Hauser, Inc., priority 2000, dated 2002).

Data set [1] is described as follows: Partition of icariside I between ethyl acetate and water. The class given is physicochemical. Particulars: hydrolyzate adjusted to pH 7.0. As to the method:
The ethanolic hydrolyzate (25 mL) prepared in Example 1 was mixed with 62.5 mL of de-ionized water and the pH was adjusted to 7.0 using 50% (w/w) sodium hydroxide solution. The resulting mixture was extracted with three 25 mL portions of ethyl acetate and the combined ethyl acetate extracts were back extracted with 150 mL of water.

In data set [2] the target is phosphodiesterase type V (PDE-5) (Homo sapiens, UniProt O76074). Nature of the data set: PDE-5 inhibition assay. Type of data set: biochemical.

Where two headings read alike, the source gives them in different places.

On to `COc1ccc(-c2oc3c(CC=C(C)C)c(O[C@@H]4O[C@H](CO)[C@@H](O)[C@H](O)[C@H]4O)cc(O)c3c(=O)c2O)cc1` [Entry 10, icariside I], for which the “partition coefficient between ethyl acetate and water” value in data set [1] was found to be 16. For the same compound, in data set [2], the “PDE-5 inhibition (in words)” value was “strong PDE-5 inhibitor”. In addition, the IC50 in data set [2] (read-out: PDE-5 IC50 (converted)) is 622 nM.
Regarding `COc1ccc(-c2oc3c(CC=C(C)C)c(O)cc(O)c3c(=O)c2O)cc1` [Entry 11, anhydroicaritin], in data set [2], the half-maximal inhibitory concentration (IC50) is 4070 nM and the “PDE-5 inhibition (in words)” value is on record as “significant inhibition of PDE-5”. The “PDE-5 inhibition (in words)” value in data set [2] (listed as anhydroicaritin) was “strong PDE-5 inhibitor”.
In the case of `COc1ccc(-c2oc3c(CCC(C)(C)O)c(O[C@@H]4O[C@H](CO)[C@@H](O)[C@H](O)[C@H]4O)cc(O)c3c(=O)c2O)cc1` [Entry 12, icariside I hydrate], in data set [2], the “PDE-5 IC50” value came out at 21.50 μg/mL and the “PDE-5 inhibition (in words)” value is “essentially inactive”.
